Values quoted from earlier work as cited in US20050148556A1, “Compositions and methods for increasing HDL and HDL-2b levels” (priority 2003, published 2005).

Details: in vivo

CN(C)C(=N)N=C(N)N [Metformin, metformin]
HDL cholesterol levels after metformin therapy: either do not change or increase slightly
